Results taken from patent publication US5681823A, “P^1, P^4 -dithio-P^2 -P^3 -monochloromethylene 5', 5'"-diadenosine P^1, P^4 -tetraphosphate as antithrombotic agent” (PRP Inc., priority 1996, dated 1997).
Like-named read-outs stand apart in the source and are kept apart here.

How the values were obtained:
Platelets = assay: Distribution of ^125 I-labeled CHCl-AP4 A into blood cell fractions: platelets; assay type: binding, human
Description: (§1) There are, however, a variety of purinoceptors on other cell types. AP4 A analogues may bind not only to platelets but also to the erythrocytes and leukocytes when whole blood is treated with the agents. […] Platelets were separated by a gradual centrifugation, the packed red cells with buffy coats (leukocytes) were mixed, and fractionated by means of histopaque gradient separation (A. Boyum, Scand J. Clin. Lab. Invest. 21(suppl 97):77 (1968)). The cell fractions were washed twice and final suspensions were counted for cell number and the radioactivity. Percent distribution was calculated based on the CBC data of whole blood. Binding sites are expressed in the values per cells.

[1] = system: ADP-induced platelet aggregation; thrombus formation; conditions: in words; cited from earlier work
[2] = system: ADP-induced platelet aggregation; conditions: Zamecnik '550 Table 3, read-out: ID50 (the source's name); cited from earlier work
Leukocytes = assay: Distribution of ^125 I-labeled CHCl-AP4 A into blood cell fractions: leukocytes; assay type: binding, human
Description: as §1

[3] = system: ADP-induced platelet aggregation; conditions: reference agent, kinetic study demonstrated previously (PNAS 1992); read-out: inhibition constant (Ki); cited from earlier work
[4] = Distribution of ^125 I-labeled CHCl-AP4 A: plasma & washes; assay type: binding, human; conditions: 23 μM, 22° C., 30 minutes; mean of two
Description: as §1

Erythrocytes = assay: Distribution of ^125 I-labeled CHCl-AP4 A into blood cell fractions: erythrocytes; assay type: binding, human
Description: as §1

[5] = system: ADP-induced platelet aggregation; assay: Inhibition kinetic study, ADP-induced platelet aggregation; assay type: cell-based, human
Description: Unless otherwise provided below, the experimental procedures were performed according to the procedures provided in U.S. Pat. No. 5,049.550 (Zamecnik '550), the entire contents of which are incorporated herein by reference. Some alternative procedures (e.g., release reaction, PF3 assays) and a number of additional studies also are provided (e.g., cytoplasmic calcium mobilization, fibrinogen binding site, agonists other than ADP, platelet cAMP and distribution of CHCl-AP4 A into blood components). Blood was collected in a 0.1 volume of 3.8% sodium citrate from healthy human volunteers who had abstained from antiplatelet agents for at least 10 days. Platelet rich plasma (PRP) was separated by a gradual centrifugation and adjusted to 3.3×10^8 platelets per ml plasma. PRP has been utilized in the Examples unless otherwise stated.
An initial screening was performed for inhibitory effects of several agents (including, e.g., thio-CHCl-AP4 A and CHCl-AP4 A as reference agent)) on platelet aggregation induced by ADP. Platelet aggregation was measured with platelet-rich plasma (PKP) by the turbidimetric method of Born (J. Physiol. 162:67, 1962) in an aggregometer (Chrono-log, Model 530 VS). Platelet aggregation induced by 5 μM ADP in the absence or presence of 5 μM agents was examined. […]

[6] = 23 μM, 22° C., 30 minutes, mean of two

SMILES | Distribution (%) (Platelets; [6]) | Binding Sites (Platelets; gross estimation per cell) | binding sites per surface area, relative value (Platelets; relative, platelets) | effect on thrombus formation on administration to a mammal [1] | IC50 [2] [nM] | Distribution (%) (Leukocytes; [6]) | Binding Sites (Leukocytes; gross estimation per cell) | binding sites per surface area, relative value (Leukocytes; relative, leukocytes) | Ki [3] [nM] | Distribution (%) [4] [%] | Distribution (%) (Erythrocytes; [6]) | Binding Sites (Erythrocytes; gross estimation per cell) | binding sites per surface area, relative value (Erythrocytes; relative, erythrocytes) | nature of inhibition [5] | Ki ([5]; ADP-induced aggregation, read-out: inhibition constant (Ki)) [nM]
Nc1ncnc2c1ncn2[C@@H]1O[C@H](COP(=O)(O)OP(=O)(O)C(Cl)P(=O)(O)OP(=O)(O)OC[C@H]2O[C@@H](n3cnc4c(N)ncnc43)[C@H](O)[C@@H]2O)[C@@H](O)[C@H]1O (stereo partly drawn) [CHCl-AP4 A] | 0.55 | 3.08 × 10^5 per cells | 100 | inhibit thrombus formation | 3000 | 1.94 | 7.39 × 10^7 per cells | 1000 | 1100 | 95.5 | 2.09 | 5.98 × 10^4 per cells | 1 | – | –
Nc1ncnc2c1ncn2[C@@H]1O[C@H](COP(O)(=S)OP(=O)(O)C(Cl)P(=O)(O)OP(O)(=S)OC[C@H]2O[C@@H](n3cnc4c(N)ncnc43)[C@H](O)[C@@H]2O)[C@@H](O)[C@H]1O (stereo partly drawn) [Thio-CHCl-AP4 A, P^1, P^4 -dithio -P^2 -P^3 monochloromethylene 5', 5'" diadenosine P^1, P^4 -tetraphosphate] | – | – | – | – | – | – | – | – | – | – | – | – | – | competitive inhibition | 330
